Converted amounts (≈) assume the structure as drawn.
Conditions: buffer; pH 7.4; 200.0 µM

Structure (SMILES) | solubility kinetic [µg/mL]
CC(NC(=O)C1CC1)C(c1cccs1)N1CCOCC1 (centres undefined) | > 44.2
O=C(Oc1ccc2ccc(=O)oc2c1)c1ccc([N+](=O)[O-])cc1 | 0.9 (≈ 2.89 µM)
O=C1NC(=S)NC(=O)C1C1CCCCC1 | 30.1 (≈ 133 µM)
COc1ccc(-n2c(C)c(C(=O)O)c3cc(OC)c4ccccc4c32)cc1 | < 0.8
CC1CCCC(NC(=O)c2ccncc2)C1C (centres undefined) | > 34.8
Cc1ccc(-c2nsc(SCC(=O)NCC3CCCO3)n2)cc1 (centres undefined) | > 52.4
O=c1oc2ccccc2n1Cc1cccc(F)c1 | 8.3 (≈ 34.1 µM)
Cc1ccc2c(c1)=C(c1ccccc1)N(O)CC(=O)N=2 | > 39.9
O=S(=O)(NCc1cccnc1)c1ccc2ccccc2c1 | 41.3 (≈ 138 µM)
CC(C)c1nc(C#N)c(NN)o1 | > 24.9
CCOc1cccc(CNc2ccc(O)cc2)c1OCc1ccc(Cl)cc1 | > 57.6
O=C(O)COCC(=O)Nc1cc(C(F)(F)F)cc(C(F)(F)F)c1 | > 51.8
CCc1nc(N2CCN(C(C)=O)CC2)c(C#N)c2c1COC(C)(C)C2 | > 51.4
CCN(CC)c1ccc(NC(=O)c2ccc3c(c2)OCO3)cc1 | 6.4 (≈ 20.5 µM)
NS(=O)(=O)c1cccc(NC(=O)CSc2nc3ccccc3c(=O)n2Cc2ccco2)c1 | 6.4 (≈ 13.6 µM)
CCOc1ccccc1NC(=O)c1oc2ccccc2c1NC(=O)C1CCCO1 (centres undefined) | < 0.4
NS(=O)(=O)c1ccc(NC(=O)/C=C/c2cccc(Cl)c2)cc1 | 1.4 (≈ 4.16 µM)
CS(=O)(=O)c1ccc(NS(=O)(=O)c2ccc(Cl)c(C(=O)NC3=NCCS3)c2)cc1 | 24 (≈ 50.6 µM)
COc1ccc(CCNC(=O)/C=C/C(=O)O)cc1OC | > 41.9
CCN1CCN(S(=O)(=O)c2c(C)cc(C)cc2C)CC1 | > 44.5
CCCN(CCC)C(=S)NC1CC2C=CC1C2 (centres undefined) | > 37.9
COc1ccc(NC(=S)NCCCN2CCOCC2)cc1 | > 46.4
COc1ccc(CCNC(=O)Nc2ccc3c(c2)OCO3)cc1OC | 5.3 (≈ 15.4 µM)
Cc1ccc(NC(=O)CCC(=O)c2cccs2)c(O)c1 | 24.2 (≈ 83.6 µM)

Structure (SMILES) | solubility kinetic [µg/mL]
CCc1nc2cccnc2n1-c1ccc(C(=O)O)cc1 | > 40.1
CCOC(=O)c1c(N)sc(C(=O)Nc2ccccc2)c1C | 40.7 (≈ 134 µM)
O=C(COc1ccccc1)NC1CCS(=O)(=O)C1 (centres undefined) | > 40.4
Cc1cc(C)c2c(CC(=O)NC3CCS(=O)(=O)C3)coc2c1 (centres undefined) | 48.2 (≈ 150 µM)
Cc1ccc2ccc(S(=O)(=O)NCc3ccco3)cc2c1 | 37 (≈ 123 µM)
CN(C)C(=O)C(CCN1CCC(O)(c2ccc(Cl)cc2)CC1)(c1ccccc1)c1ccccc1.Cl | > 77
Cn1c(SCC(N)=O)nnc1-c1ccc(C(C)(C)C)cc1 | > 45.7
O=C1CC(c2ccccc2)CN1C(=O)c1cccnc1 (centres undefined) | 34.8 (≈ 131 µM)
O=C(Nc1ccc2ccccc2c1)c1ccc(Br)o1 | 4.9 (≈ 15.5 µM)
Fc1ccc(CNc2nc(-c3cccnc3)nc3ccccc23)cc1 | 5.6 (≈ 17 µM)
O=C(COC(=O)c1cc(S(=O)(=O)N2CCOCC2)ccc1O)Nc1ccc2c(c1)OCO2 | > 69.7
O=C(Nc1cccs1)N1CCN(c2ncccn2)CC1 | > 43.4
CS(=O)(=O)N1CCc2cc(C(=O)Nc3ccccc3)ccc21 | 2.3 (≈ 7.27 µM)
O=C(c1ccc(Br)s1)N1CCc2ccccc2C1 | 19.8 (≈ 61.4 µM)
O=C(O)c1ccccc1C(=O)NCC(O)c1ccccc1 (centres undefined) | > 42.8
O=C(COC(=O)c1cccc(Br)c1)NCc1ccco1 | 19 (≈ 56.2 µM)
Cn1c(=O)c2sccc2n(Cc2ccccc2)c1=O | > 40.8
O=C(CNC(=O)c1ccccc1)OCC(=O)c1cccs1 | > 45.5
CCc1ccc(NC(=O)CSc2ccccn2)cc1 | 33.7 (≈ 124 µM)
CC1(C)CC(=O)C=C(N2CCOCC2)C1 | > 31.4
COc1ccc(C(=O)NCCCc2ccccc2)cc1OC | > 44.9
CCNc1nc(NCc2ccccc2)nc(SCC(N)=O)n1 | 42.2 (≈ 133 µM)
CCCC(=O)Nc1sc2c(c1C(=O)OCC)CC(C)(C)OC2 | 4.6 (≈ 14.1 µM)
CN1CCN(NS(=O)(=O)c2ccc(Cl)cc2)CC1 | > 43.5

Structure (SMILES) | solubility kinetic [µg/mL]
Cc1ccc(N(CC(=O)N2CCOCC2)S(C)(=O)=O)cc1Cl | > 52
CC(C)CN(C(=O)CSc1nc2ccccc2c(=O)[nH]1)c1c(N)n(CC(C)C)c(=O)[nH]c1=O | 10.5 (≈ 22.2 µM)
CCCc1cc(=O)[nH]c(SCC(=O)NCc2ccc3c(c2)OCO3)n1 | > 54.2
COc1ccc(C(=O)Nc2cccc3c2CCCC3)cc1OC | 1 (≈ 3.21 µM)
Cc1ccc(S(=O)(=O)N2CCN(C)CC2)cc1 | > 38.2
COc1ccc(NC(C)=O)cc1C#N | 24.5 (≈ 129 µM)
COc1ccc(C(=O)NCCc2ccccc2)cc1[N+](=O)[O-] | > 45
Cc1cc(C)cc(NC(=O)C2CC3CCC2C3)c1 (centres undefined) | 6.8 (≈ 27.9 µM)
O=C(O)CCc1[nH]c2ccccc2c1Sc1ccccc1 | > 44.6
COc1cc(C=O)ccc1OCC(=O)N1CCCC1 | > 39.5
O=C(O)c1cc(S(=O)(=O)NCC2COc3ccccc3O2)ccc1Cl (centres undefined) | > 57.6
CC(C)(C)OC(=O)CN1C(=O)NC2(CCCc3ccccc32)C1=O (centres undefined) | > 49.6
Cc1ccc(SC(C)C(=O)N2CCC(C(N)=O)CC2)cc1 (centres undefined) | 30.4 (≈ 99.2 µM)
COc1cc2c(cc1OC)C(c1cccc(Cl)c1)CC(=O)N2 (centres undefined) | 38 (≈ 120 µM)
COc1cccc(/C=C/C(=O)OCC(=O)NCCC2=CCCCC2)c1OC | 6.9 (≈ 18.5 µM)
CCC1C(=O)C(CC)C(c2ccccc2)NC1c1ccccc1 (centres undefined) | 4.3 (≈ 14 µM)
COc1ccc(S(=O)(=O)Nc2cc3[nH]c(=O)oc3cc2C)cc1 | > 50.2
COc1ccc(NC(=O)NCc2ccccn2)c(OC)c1 | 42.1 (≈ 147 µM)
Cc1ccnc(NC(=O)c2ccc(C(=O)c3ccccc3)cc2)c1 | 25.8 (≈ 81.6 µM)
O=C(NCCCn1ccnc1)c1ccc(-c2cccc(Cl)c2Cl)o1 | 48.1 (≈ 132 µM)
COC(=O)c1sc(-c2cccs2)cc1NC(=O)/C=C/C(=O)O | > 50.6
COc1ccc(-c2cc3nc(CCl)[nH]c(=O)c3s2)cc1 | 2.8 (≈ 9.13 µM)
O=C(O)C(Cc1ccc(O)cc1)N1C(=O)c2ccccc2C1=O (centres undefined) | > 46.7
Cc1ccc(CN(C)CC(=O)Nc2ccc3c(c2)CCC3)cc1 | 5.4 (≈ 17.5 µM)

Structure (SMILES) | solubility kinetic [µg/mL]
COc1ccc(OCCOCCN2CCN(C)CC2)cc1.O=C(O)C(=O)O | 54.2
COCCCNC(=S)Nc1cccc(SC)c1 | > 40.6
COc1ccc(Cl)cc1NC(=O)CN1CCCCCC1 | 2.1 (≈ 7.08 µM)
CCO.N#CC1=C(N)Oc2c(oc(CO)cc2=O)C1c1ccccc1[N+](=O)[O-] (centres undefined) | 45.9
Cc1cccc(N(C)S(=O)(=O)c2ccc3c(c2)NC(=O)CC(=O)N3)c1 | > 53.9
CC(C)(C)NC(=O)/C(=C\c1ccco1)NC(=O)c1ccco1 | > 45.3
COc1cccc(-n2c(O)c(C=NCCN3CCNCC3)c(=O)[nH]c2=S)c1 | > 58.4
COc1ccc(Cl)cc1NC(=S)NCCN1CCOCC1 | > 49.5
CC(=O)Oc1ccc(-c2csc(Nc3cccc(C)n3)n2)cc1 | < 0.2
CCCC(=O)Nc1nnc(SCC(=O)NC2CC2)s1 | > 45.1
Cc1ccc2c(c1)cc(C(=O)NCc1ccccc1)n2C | 3.5 (≈ 12.6 µM)
O=C1NC(=Nc2ccc(F)cc2)SC1Cc1ccc(F)cc1 (centres undefined) | 1 (≈ 3.14 µM)
O=C1Nc2ccccc2Nc2ccc([N+](=O)[O-])cc21 | 1.1 (≈ 4.31 µM)
O=C(CN1C(=O)NC2(CCCC2)C1=O)OCCOc1ccccc1 | > 49.9
Cn1c(=O)c([N+](=O)[O-])c(-n2cnc3ccccc32)c2ccccc21 | > 48
O=C(O)C1C2CCC(O2)C1C(=O)Nc1ccc(F)c(F)c1 (centres undefined) | 40.5 (≈ 136 µM)
CCCCOc1ccc(CSCCN)cc1Cl.Cl | > 46.5
Cc1ccccc1OCC(=O)NCCCNC(=O)c1ccccn1 | > 49.1
CC(C)OP(=O)(O)NC(=O)c1ccccc1 | > 36.5
Cn1cc(C(=O)OCC(=O)NC2(C#N)CCCC2)c2ccccc21 | > 48.8
O=C(NCc1cccnc1)C1CC(c2ccccc2O)=NO1 (centres undefined) | > 44.6
COc1ccccc1OC(C)C(=O)N1CCC(Cc2ccccc2)CC1 (centres undefined) | 50.9 (≈ 144 µM)
Cc1cccc(N2C(=O)CC(SC(N)=Nc3ccccc3)C2=O)c1 (centres undefined) | 3 (≈ 8.84 µM)
CN(C(=O)NC1CCCCC1)c1ccccc1 | > 34.8

Structure (SMILES) | solubility kinetic [µg/mL]
COc1cc(SC)ccc1C(=O)Nc1nc(C)cc(C)n1 | 40.7 (≈ 134 µM)
CCOC(=O)/C(C(=Nc1ccccc1)Nc1ccccc1)=C(\C)O | 29.5 (≈ 90.9 µM)
O=C1/C(=C\c2ccco2)SC(=S)N1C1CCS(=O)(=O)C1 (centres undefined) | 6.6 (≈ 20 µM)
Cc1ccc(S(C)(=O)=NC(=O)NC(=O)c2c(Cl)cccc2Cl)cc1 (centres undefined) | 41.3 (≈ 107 µM)
Clc1ccc(C2=CSC3=NCCN23)c(Cl)c1.[Br-] | > 52.7
CC(C)(C)c1ccccc1NC(=S)NC1CCCC1 | 30.9 (≈ 112 µM)
COc1ccc(NC(=O)CC2CCCC2)cc1OC | > 39.5
COCCN1CC(C(=O)NCc2ncccc2C)CCC1=O (centres undefined) | > 45.8
COc1cc([N+](=O)[O-])ccc1N1C(=O)C2C3C=CC(C4CC34)C2C1=O (centres undefined) | 7.2 (≈ 21.2 µM)
O=C(O)C1C2CCC(C2)C1C(=O)Nc1ccc(Cl)c(Cl)c1 (centres undefined) | < 0.7
COc1cccc(CNC(=O)COC(=O)c2c(NC(C)=O)sc(C)c2C)c1 | 1.9 (≈ 4.87 µM)
Cc1cccc(C(=O)OCC(=O)c2ccc3c(c2)NC(=O)CO3)c1 | 4.5 (≈ 13.8 µM)
COc1ccccc1CNC(=O)CN1C(=O)NC(Cc2ccccc2)(c2ccccc2)C1=O (centres undefined) | 32.9 (≈ 74.2 µM)
COc1cc(Br)c(CN2CCCN(C)CC2)cc1OC | 44.2 (≈ 129 µM)
Cn1cc(CC(=O)NCc2ccc(F)cc2)c2ccccc21 | > 44.5
CC1CCCC(NC(=O)CSc2cccc[n+]2[O-])C1C (centres undefined) | > 44.2
COc1ccc(-n2c(C)nc(N)c2C(=O)c2ccccc2)cc1 | 19.8 (≈ 64.4 µM)
O=S(=O)(/N=C(/c1ccccc1)N1CCOCC1)c1ccc(F)cc1F | > 55
COc1ccc(NC(=O)COC(=O)c2ccc3ccccc3n2)c(OC)c1 | 3 (≈ 8.19 µM)
C=CC(=O)NC(C)(C)CCN1CCOCC1 | > 33.9
O=c1c2ccccc2nc2n1C(CSc1ccccc1)CS2 (centres undefined) | > 49
c1ccc2[nH]c(-c3ccncc3)nc2c1 | > 29.3
COc1ccc(S(=O)(=O)N2CCN(C(=O)N(C)C)C2C)cc1 (centres undefined) | > 49.1

Source: PubChem BioAssay AID1996
